The supplement of paper PMC10307832

What was measured:
Test in all cases: relative viability (nuclei count vs DMSO), 5 days (fraction); higher = more cells survive
[1] = compound: CC(C)CCN1c2nc(Nc3cc(F)c(O)c(F)c3)ncc2N(C)C(=O)C1C [BI-D1870] + Cc1nc(NC(=O)N2CCC[C@H]2C(N)=O)sc1-c1ccnc(C(C)(C)C(F)(F)F)c1 [Alpelisib] (partner 2 µM)
How it was run: (§1)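 Values are medians from duplicate plates. Each reflects relative viability, defined as the nuclei count of treated wells over that of vehicle wells. Lung cancer cell lines in 1536-well plates were pin-tool dosed one day after seeding with one drug alone or with a fixed anchor-drug dose plus five library-drug doses (not always all listed) in √10 steps, then fixed, stained and imaged at 4× after 5 days.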

[2] = compound: O=c1ncccn1[C@@H]1O[C@H](CO)[C@@H](O)[C@H]1O [Zebularine] + N=C(N)NC(=N)NCCc1ccccc1 [Phenformin] (partner 250 µM)
How it was run: as §1

[3] = compound: CC(C)CCN1c2nc(Nc3cc(F)c(O)c(F)c3)ncc2N(C)C(=O)C1C [BI-D1870] + Cc1nc(Nc2ncc(C(=O)Nc3c(C)cccc3Cl)s2)cc(N2CCN(CCO)CC2)n1 [Dasatinib] (partner 0.075 µM)
How it was run: as §1

[4] = compound: O=c1ncccn1[C@@H]1O[C@H](CO)[C@@H](O)[C@H]1O [Zebularine] + COc1cc2c(Oc3ccc(NC(=O)C4(C(=O)Nc5ccc(F)cc5)CC4)cc3F)ccnc2cc1OCCCN1CCOCC1 [Foretinib] (partner 0.25 µM)
How it was run: as §1

Cell Line	relative viability ([1]; first compound 0.04 µM)	relative viability ([1]; first compound 0.1265 µM)	relative viability ([1]; first compound 0.4 µM)	relative viability ([1]; first compound 1.265 µM)	relative viability ([1]; first compound 4 µM)	relative viability ([2]; first compound 1 µM)	relative viability ([2]; first compound 3.162 µM)	relative viability ([2]; first compound 10 µM)	relative viability ([2]; first compound 31.62 µM)	relative viability ([2]; first compound 100 µM)	relative viability ([3]; first compound 0.04 µM)	relative viability ([3]; first compound 0.1265 µM)	relative viability ([3]; first compound 0.4 µM)	relative viability ([3]; first compound 1.265 µM)	relative viability ([3]; first compound 4 µM)	relative viability ([4]; first compound 1 µM)	relative viability ([4]; first compound 3.162 µM)	relative viability ([4]; first compound 10 µM)	relative viability ([4]; first compound 31.62 µM)	relative viability ([4]; first compound 100 µM)
NCI-H1651	1.04	0.939	1	0.942	0.941	0.347	0.401	0.273	0.369	0.256	0.405	0.293	0.345	0.297	0.237	0.856	0.93	0.511	0.738	0.374
NCI-H1666	0.77	0.767	0.987	1.14	0.816	0.594	0.551	0.531	0.591	0.495	0.839	0.84	0.701	0.824	0.744	0.94	0.919	0.805	0.999	0.805
NCI-H1734	0.778	0.619	0.683	0.75	0.597	0.444	0.363	0.26	0.282	0.24	0.464	0.455	0.436	0.471	0.484	0.931	0.864	0.631	0.529	0.299
NCI-H1755	0.973	0.852	0.983	0.968	0.869	0.671	0.612	0.592	0.684	0.53	0.511	0.408	0.407	0.567	0.442	0.925	0.918	0.854	0.992	0.591
NCI-H1793	0.647	0.607	0.537	0.69	0.719	0.4	0.39	–	0.237	0.168	0.423	0.334	0.396	0.39	0.309	0.685	0.84	–	0.573	0.207
NCI-H1915	1.03	1.07	1.03	1.06	1	0.373	0.381	–	0.379	0.349	0.356	0.276	0.294	0.274	0.261	1.3	1.11	–	1.26	0.984
NCI-H1944	0.907	0.803	0.817	0.927	0.861	0.226	0.188	0.174	0.19	0.146	0.216	0.214	0.215	0.253	0.238	0.966	0.859	0.858	0.81	0.649
NCI-H1975	0.646	0.572	0.518	0.55	0.34	0.416	0.417	0.229	0.221	0.148	0.497	0.314	0.359	0.399	0.295	0.961	0.889	0.362	0.292	0.2
NCI-H1993	0.619	0.677	0.643	0.708	0.811	0.556	0.477	0.534	0.449	0.548	0.663	0.48	0.697	0.868	0.467	0.843	0.697	0.718	0.753	0.704
NCI-H2009	1.28	1.13	1.21	0.995	0.885	0.515	0.483	0.425	0.435	0.336	0.325	0.212	0.304	0.248	0.141	1.28	1.25	0.919	0.973	0.373
NCI-H2023	0.696	0.552	0.592	0.634	0.552	0.475	0.443	0.213	0.23	0.208	0.619	0.378	0.577	0.617	0.426	0.843	0.891	0.713	0.635	0.361
NCI-H2085	0.986	0.886	0.92	0.938	0.74	0.761	0.663	0.566	0.673	0.539	0.246	0.246	0.222	0.239	0.281	0.879	1.06	0.785	0.833	0.503
NCI-H2087	1.15	1.05	1.09	1.23	0.877	0.524	0.448	0.272	0.385	0.352	0.93	0.798	0.921	0.891	0.743	1.06	1.04	0.782	0.791	0.284
NCI-H2126	0.749	0.786	0.781	0.759	0.723	0.579	0.473	0.445	0.494	0.435	0.575	0.6	0.55	0.548	0.483	1.44	1.09	0.97	1.06	0.883
NCI-H2170	0.867	0.705	0.818	0.751	0.772	0.422	0.424	0.376	0.41	0.243	0.735	0.584	0.529	0.54	0.575	0.983	1.02	0.909	0.98	0.611
NCI-H2228	0.669	0.568	0.876	0.602	0.35	0.313	0.313	0.182	0.323	0.221	0.543	0.403	0.553	0.544	0.337	0.902	0.898	0.507	0.914	0.281
